In the NIST ThermoML archive (doi:10.1016/j.jct.2008.02.003):
Numbers after ± are expanded uncertainties.

Tests used:
[1] = Molar enthalpy of transition or fusion; details: Crystal; DSC
[2] = molar enthalpy of vaporization or sublimation; details: 298.15 K, Calvet microcalorimetry
[3] = Crystal; DTA

SMILES	Molar enthalpy of transition or fusion [1]	molar enthalpy ([2]; Crystal)	Normal melting temperature [3]	molar enthalpy ([2]; Liquid)
COc1cccc(Cl)c1Cl [1,2-dichloro-3-methoxybenzene]	5.27 ± 0.12 kcal/mol	20 ± 0.717 kcal/mol	30.99 ± 0.39 °C	
COc1c(Cl)cccc1Cl [2,6-dichloroanisole]				13.4 ± 0.335 kcal/mol
COc1cc(Cl)cc(Cl)c1 [3,5-dichloroanisole]	5.66 ± 0.148 kcal/mol	18.9 ± 0.717 kcal/mol	37.37 ± 0.39 °C	
COc1ccc(Cl)cc1Cl [2,4-dichloro-1-methoxybenzene]				15 ± 0.335 kcal/mol
